Assay results published in patent US10406239B2, “Water-soluble docetaxel anticancer drug compound and preparation method and use thereof” (NANJING YOUYI MEDICAL TECHNOLOGY CO., LTD, priority 2015, dated 2019).
Marks after values point to notes of the source that are not given here.

What was measured:
[1] = Effect on body weight of nude mice with A549 human lung cancer xenografts; type: in vivo, BALB/c nude mice
Experimental: (§1) The dose volume was 0.4 ml per 20 g, that is, the dose was 96 mg/kg. Then, the solution was diluted to other desired concentrations with 0.9% sodium chloride solution.
(§2) Docetaxel injection, manufactured by Jiangsu Hengrui Pharmaceutical Co., Ltd., lot number: 15011215, specification: 0.5 ml: 20 mg. Formulation method: during use, 20 mg of docetaxel injection of the above specification was added to 1.5 ml of a solvent for the docetaxel injection to give a concentration of 10 mg/ml, and then fully diluted with saline to 1 mg/ml. The dose volume was 0.2 ml per 20 g, that is, the dose was 10 mg/kg.
(§3) BALB/c nude mice, provided by Changzhou Kavens Laboratory Animal Co., Ltd. (Experimental Animal Production License: SOCK (Su) 2011-0003), age: 35-40 days, weight: 18-24 g, female.
(§4) Human lung cancer A549 cell line in logarithmic growth phase was prepared into a cell suspension of 1×10^8 cells/ml under aseptic conditions and subcutaneously inoculated to the right axillary fossa of nude mice in a volume of 0.1 ml. The size of the xenograft in the nude mice was measured with a vernier caliper. After the xenografts grew to 100-300 mm^3, the animals were randomly grouped. The anti-tumor effect of the test agents was dynamically observed by measuring the size of the xenografts. The size of the xenografts was measured once every 3 days. The dose volume was 0.4 ml/20 g. Twenty-one days later, the mice were sacrificed and the tumors were surgically excised and weighed. The tumor volume (TV) is calculated by a formula below: TV=½×a×b^2

[2] = test system: A549 human lung cancer xenografts; test: Growth inhibition on A549 human lung cancer xenografts in nude mice; type: in vivo, BALB/c nude mice; conditions: for Tumor inhibition rate: by tumor weight
Experimental: as §1, §2, §3
A549 human lung cancer xenografts in nude mice was established by inoculating human lung cancer A549 cell line subcutaneously to the axillary fossa of nude mice in an amount of 2*10^6 cells/animal.
as §4
The relative tumor volume (RTV) is calculated based on the measurements by a formula: RTV=Vt/V0, where V0 is the measured tumor volume upon being caged (i.e., d0) and Vt is the tumor volume at each measurement. The evaluation index of the anti-tumor activity is relative tumor growth rate T/C (%), which is calculated by a formula below: […]
in which TRTV is the RTV of the treatment group; and CRTV is the RTV of the negative control group.
The tumor inhibition rate is calculated by a formula below: […]
Tweight is the average tumor weight of the treatment group; and Cweight is the average tumor weight of the negative control group.

[3] = background statement; cited from earlier work
[4] = background statement; cited from earlier work; remark: listed apart in the source
[5] = Docetaxel 10 mg/kg, tail vein, once every 3 days, 7 doses, 21 d
[6] = Docetaxel 10 mg/kg, tail vein, once every 3 days, 3 d
[7] = Docetaxel 10 mg/kg, tail vein, once every 3 days, 6 d
[8] = Docetaxel 10 mg/kg, tail vein, once every 3 days, 9 d
[9] = Docetaxel 10 mg/kg, tail vein, once every 3 days, 12 d
[10] = Docetaxel 10 mg/kg, tail vein, once every 3 days, 15 d
[11] = Docetaxel 10 mg/kg, tail vein, once every 3 days, 18 d

Structure (SMILES): CC(=O)O[C@@]12CO[C@@H]1C[C@H](O)[C@@]1(C)C(=O)[C@H](O)C3=C(C)[C@@H](OC(=O)[C@H](O)[C@@H](NC(=O)OC(C)(C)C)c4ccccc4)C[C@@](O)([C@@H](OC(=O)c4ccccc4)[C@H]21)C3(C)C [Docetaxel]
- effect on the body weight of the experimental mice (in words) ([1]; 10 mg/kg docetaxel, P<0.01): Extremely significant effect
- Initial body weight ([1]; Docetaxel 10 mg/kg group, before dosing): 22.50 ± 1.26 g
- Final body weight ([1]; Docetaxel 10 mg/kg, once every 3 days, end of study (21 days)): 15.17 ± 0.90 g
- Tumor volume ([2]; Docetaxel 10 mg/kg group, 0 d (baseline)): 100.58 ± 20.87 mm^3
- Tumor inhibition rate ([2]; Docetaxel 10 mg/kg, once every 3 days, 7 doses): 72.16%
- Tumor inhibition rate ([2]; Docetaxel 10 mg/kg, once every 3 days, 7 doses, listed as docetaxel): 72.16%
- Tumor weight ([2]; Docetaxel 10 mg/kg, once every 3 days, tumors excised after 21 days): 0.33 ± 0.15 g
- RTV (relative tumor volume) [2, 5]: 2.40 ± 0.99
- T/C (relative tumor growth rate) [2, 5]: 21.15%
- Tumor volume [2, 5]: 226.65 ± 56.45* mm^3
- T/C (relative tumor growth rate) ([2]; Docetaxel 10 mg/kg, tail vein, once every 3 days, 7 doses, 21 d, listed as docetaxel): 21.15%
- RTV (relative tumor volume) [2, 6]: 1.62 ± 0.37
- T/C (relative tumor growth rate) [2, 6]: 56.09%
- Tumor volume [2, 6]: 157.30 ± 26.48** mm^3
- RTV (relative tumor volume) [2, 7]: 1.49 ± 0.39
- T/C (relative tumor growth rate) [2, 7]: 41.39%
- Tumor volume [2, 7]: 147.47 ± 41.99** mm^3
- RTV (relative tumor volume) [2, 8]: 1.59 ± 0.47
- T/C (relative tumor growth rate) [2, 8]: 34.23%
- Tumor volume [2, 8]: 155.55 ± 44.12** mm^3
- RTV (relative tumor volume) [2, 9]: 2.15 ± 0.81
- T/C (relative tumor growth rate) [2, 9]: 33.77%
- Tumor volume [2, 9]: 208.93 ± 68.26** mm^3
- RTV (relative tumor volume) [2, 10]: 2.24 ± 0.43
- T/C (relative tumor growth rate) [2, 10]: 26.80%
- Tumor volume [2, 10]: 224.22 ± 57.63** mm^3
- RTV (relative tumor volume) [2, 11]: 1.87 ± 0.28
- T/C (relative tumor growth rate) [2, 11]: 19.30%
- Tumor volume [2, 11]: 186.80 ± 42.03** mm^3
- oral bioavailability [3]: less than 8%
- intracellular concentration higher than that of paclitaxel [4]: 3 times
